# Patent US20210253575A1, “PYRROLIDINE AMINE COMPOUNDS FOR THE TREATMENT OF AUTOIMMUNE DISEASE” (Hoffmann-La Roche Inc., priority 2018, published 2021)
# Target: T1, human TLR9 (Homo sapiens, UniProt Q9NR96)
# T1 sequence (Q9NR96 26-1032): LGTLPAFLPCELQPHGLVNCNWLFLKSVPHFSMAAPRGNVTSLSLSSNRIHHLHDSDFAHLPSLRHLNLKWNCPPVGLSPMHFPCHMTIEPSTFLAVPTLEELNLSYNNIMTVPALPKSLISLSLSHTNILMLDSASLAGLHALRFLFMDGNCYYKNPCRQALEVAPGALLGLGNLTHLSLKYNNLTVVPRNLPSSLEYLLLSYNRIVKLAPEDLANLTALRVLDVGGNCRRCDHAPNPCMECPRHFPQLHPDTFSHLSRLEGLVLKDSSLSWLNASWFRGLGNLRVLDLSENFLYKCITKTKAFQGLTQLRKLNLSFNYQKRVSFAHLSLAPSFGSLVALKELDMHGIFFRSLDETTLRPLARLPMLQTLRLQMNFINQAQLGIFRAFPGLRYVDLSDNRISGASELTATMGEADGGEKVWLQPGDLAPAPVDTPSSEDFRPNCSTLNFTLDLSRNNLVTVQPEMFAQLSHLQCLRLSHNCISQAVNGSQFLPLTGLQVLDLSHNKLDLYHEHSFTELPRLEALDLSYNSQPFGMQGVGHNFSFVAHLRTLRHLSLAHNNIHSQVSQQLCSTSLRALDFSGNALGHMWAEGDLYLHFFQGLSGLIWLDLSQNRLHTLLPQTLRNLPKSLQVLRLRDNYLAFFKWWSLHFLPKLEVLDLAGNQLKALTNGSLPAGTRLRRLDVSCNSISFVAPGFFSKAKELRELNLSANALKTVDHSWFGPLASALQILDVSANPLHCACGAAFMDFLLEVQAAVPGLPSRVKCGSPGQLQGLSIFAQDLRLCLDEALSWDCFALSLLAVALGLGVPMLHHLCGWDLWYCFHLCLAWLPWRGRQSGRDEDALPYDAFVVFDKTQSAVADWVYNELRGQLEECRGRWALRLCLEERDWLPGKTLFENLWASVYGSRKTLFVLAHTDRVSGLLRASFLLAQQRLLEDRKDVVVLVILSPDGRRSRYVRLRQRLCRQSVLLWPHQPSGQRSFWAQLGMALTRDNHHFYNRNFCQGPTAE
# Assay: HEK293-Blue-hTLR-9 cells assay (SEAP reporter, ODN2006 stimulation)
# Format: cell-based
# Conditions: HEK293-Blue-hTLR9 cells, ODN2006 ligand, 20 hrs incubation
# In short: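 HEK293-Blue-hTLR9 cells with NF-κB/AP-1-driven SEAP reporter, stimulated with ODN2006 in presence of serially diluted compounds (1% DMSO) for 20 h at 37 °C. Supernatant SEAP measured with QUANTI-Blue after 2 h at 37 °C, absorbance 620–655 nm.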
row,SMILES,IC50
1,"CC1(CN)CCN(C[C@H]2CN(c3ccc(C#N)c4nccnc34)C[C@@H]2C(F)(F)F)C1 (stereo partly drawn) [Example 85, 8-[(3S,4R)-3-[[3-(aminomethyl)-3-methyl-pyrrolidin-1-yl]methyl]-4-(trifluoromethyl)pyrrolidin-1-yl]quinoxaline-5-carbonitrile]",314 nM
2,"CN1CCC2(CCN(C[C@H]3CN(c4ccc(C#N)c5nccnc45)C[C@@H]3C(F)(F)F)C2)C1 (stereo partly drawn) [Example 84, 8-[(3S,4R)-3-[(7-methyl-2,7-diazaspiro[4.4]nonan-2-yl)methyl]-4-(trifluoromethyl)pyrrolidin-1-yl]quinoxaline-5-carbonitrile]",409 nM
3,"N#Cc1ccc(N2CC(CN3CC4CCC(C3)C4N)C3(CC3)C2)c2nccnc12 (centres unmarked) [Example 4, 8-[7-[(8-Amino-3-azabicyclo[3.2.1]octan-3-yl)methyl]-5-azaspiro[2.4]heptan-5-yl]quinoxaline-5-carbonitrile]",244 nM
4,"CN(C)[C@@H]1CCN(C[C@H]2CN(c3ccc(C#N)c4nccnc34)C[C@@H]2C(F)(F)F)C1 [Example 83, 8-[(3S,4R)-3-[[(3R)-3-(dimethylamino)pyrrolidin-1-yl]methyl]-4-(trifluoromethyl)pyrrolidin-1-yl]quinoxaline-5-carbonitrile]",2020 nM
5,"N#Cc1ccc(N2CC(CN3CCNCC3)C3(CC3)C2)c2nccnc12 (centres unmarked) [Example 3, 8-[7-(piperazin-1-ylmethyl)-5-azaspiro[2.4]heptan-5-yl]quinoxaline-5-carbonitrile]",1870 nM
